Results on 8 compounds are retold here after ChEMBL document CHEMBL1275493, “Anti-human immunodeficiency virus type 1 activities of antimicrobial peptides derived from human and bovine cathelicidins” (Antimicrob Agents Chemother, 2008).

Each structure is given as a SMILES string. Peptide text beside a SMILES is read from it.

Series [1] is described as follows: Therapeutic index, TC50 for Human immunodeficiency virus 1 3B infected human CEM-SS cells to EC50 for immunodeficiency virus 1 3B. The following applies: CEM-SS cells infected with HIV-1 3B, read-out: TI. Type of series: cell-based.
Series [2] has as its system Human immunodeficiency virus 1. Kind of series: Antiviral activity against Human immunodeficiency virus 1 3B infected in CEM-SS cells. Type of series: functional, organism-based.
Series [3] has as its system CEM-SS. Kind of series: Cytotoxicity against Human immunodeficiency virus 1 3B infected human CEM-SS cells. Type of series: functional. The following applies: read-out: TC50 (the source's name).

On to `CC[C@H](C)[C@H](NC(=O)[C@H](CCCNC(=N)N)NC(=O)[C@H](CCC(N)=O)NC(=O)[C@@H](NC(=O)[C@@H](NC(=O)[C@H](CCCNC(=N)N)NC(=O)[C@H](CCCCN)NC(=O)[C@H](Cc1ccccc1)NC(=O)CN)[C@@H](C)CC)C(C)C)C(=O)N[C@@H](CCCCN)C(=O)N[C@@H](CC(=O)O)C(=O)N[C@@H](Cc1ccccc1)C(=O)N[C@@H](CC(C)C)C(=O)N[C@@H](CCCNC(=N)N)C(=O)N[C@@H](CC(N)=O)C(=O)N[C@@H](CC(C)C)C(=O)N[C@H](C(=O)O)C(C)C`, for which, in series [1], the selectivity ratio came to 9.1. In series [2], this compound displayed an EC50 of 980 nM. In addition, the CC50 in series [3] is 8.9 µM.

Regarding `CC[C@H](C)[C@H](NC(=O)[C@H](CCCCN)NC(=O)[C@H](CCCCN)NC(=O)[C@H](Cc1ccccc1)NC(=O)[C@H](CC(C)C)NC(=O)[C@H](CCCCN)NC(=O)[C@H](CCCCN)NC(=O)[C@H](NC(=O)[C@H](CCCCN)NC(=O)[C@H](CCCCN)NC(=O)[C@H](CCCNC(=N)N)NC(=O)[C@H](NC(=O)[C@H](CCCNC(=N)N)NC(=O)[C@H](CCCCN)NC(=O)[C@H](Cc1ccccc1)NC(=O)[C@H](CCCNC(=N)N)NC(=O)CN)c1ccccc1)c1ccccc1)C(=O)N[C@@H](CO)C(=O)O`, the selectivity ratio in series [1] is 15. In series [2], the midpoint of the response, the EC50, lay at 680 nM. Besides, in series [3], the CC50 stood at 10.2 µM.

`CC[C@H](C)[C@H](NC(=O)[C@H](CCCNC(=N)N)NC(=O)[C@H](CCC(N)=O)NC(=O)[C@@H](NC(=O)[C@@H](NC(=O)[C@H](CCCNC(=N)N)NC(=O)[C@H](CCCCN)NC(=O)[C@@H](N)Cc1ccccc1)[C@@H](C)CC)C(C)C)C(=O)N[C@@H](CCCCN)C(=O)N[C@@H](CC(=O)O)C(=O)N[C@@H](Cc1ccccc1)C(=O)N[C@@H](CC(C)C)C(=O)N[C@@H](CCCNC(=N)N)C(=O)O` (H-FKRIVQRIKDFLR-OH): the selectivity ratio in series [1] stood at 3.1. In series [2], this compound returned an EC50 of 3400 nM. In series [3], the CC50 amounted to 10.4 µM.

As for `CC[C@H](C)[C@H](NC(=O)CN)C(=O)N[C@@H](CCCCN)C(=O)N[C@@H](CCC(=O)O)C(=O)N[C@@H](Cc1ccccc1)C(=O)N[C@@H](CCCCN)C(=O)N[C@@H](CCCNC(=N)N)C(=O)N[C@H](C(=O)N[C@H](C(=O)N[C@@H](CCC(N)=O)C(=O)N[C@@H](CCCNC(=N)N)C(=O)N[C@H](C(=O)N[C@@H](CCCCN)C(=O)N[C@@H](CC(=O)O)C(=O)N[C@@H](Cc1ccccc1)C(=O)N[C@@H](CC(C)C)C(=O)N[C@@H](CCCNC(=N)N)C(=O)N[C@@H](CC(N)=O)C(=O)N[C@@H](CC(C)C)C(=O)N[C@H](C(=O)O)C(C)C)[C@@H](C)CC)C(C)C)[C@@H](C)CC` (H-GIKEFKRIVQRIKDFLRNLV-OH), the selectivity ratio in series [1] amounted to 21. Also, the midpoint of the response in series [2], the EC50, lay at 1080 nM. Besides, in series [3], the CC50 stood at 22.7 µM.

Consider `CC[C@H](C)[C@H](NC(=O)CN)C(=O)N[C@@H](CCCCN)C(=O)N[C@@H](CCC(N)=O)C(=O)N[C@@H](Cc1ccccc1)C(=O)N[C@@H](CCCCN)C(=O)N[C@@H](CCCNC(=N)N)C(=O)N[C@H](C(=O)N[C@H](C(=O)N[C@@H](CCC(N)=O)C(=O)N[C@@H](CCCNC(=N)N)C(=O)N[C@H](C(=O)N[C@@H](CCCCN)C(=O)N[C@@H](CC(=O)O)C(=O)N[C@@H](Cc1ccccc1)C(=O)N[C@@H](CC(C)C)C(=O)N[C@@H](CCCNC(=N)N)C(=O)N[C@@H](CC(N)=O)C(=O)N[C@@H](CC(C)C)C(=O)N[C@H](C(=O)O)C(C)C)[C@@H](C)CC)C(C)C)[C@@H](C)CC` (H-GIKQFKRIVQRIKDFLRNLV-OH), for which the selectivity ratio in series [1] was determined as 15.1. This compound also gave an EC50 in series [2] of 910 nM.

Turning to `CC[C@H](C)[C@H](NC(=O)[C@H](CCCCN)NC(=O)[C@H](CCCCN)NC(=O)[C@H](Cc1ccccc1)NC(=O)[C@H](CC(C)C)NC(=O)[C@H](CCCCN)NC(=O)[C@H](CCCCN)NC(=O)[C@H](Cc1ccccc1)NC(=O)[C@H](CCCCN)NC(=O)[C@H](CCCCN)NC(=O)[C@H](CCCNC(=N)N)NC(=O)[C@H](Cc1ccccc1)NC(=O)[C@H](CCCNC(=N)N)NC(=O)[C@H](CCCCN)NC(=O)[C@H](Cc1ccccc1)NC(=O)[C@H](CCCNC(=N)N)NC(=O)CN)C(=O)N[C@@H](CO)C(=O)O` (H-GRFKRFRKKFKKLFKKIS-OH), the selectivity ratio in series [1] turned out to be 24.1. In series [2], this compound gave an EC50 of 350 nM. Besides, in series [3], the CC50 was found to be 8.45 µM.

`CC[C@H](C)[C@H](NC(=O)[C@H](CCCCN)NC(=O)[C@H](CCCCN)NC(=O)[C@H](Cc1ccccc1)NC(=O)[C@H](CC(C)C)NC(=O)[C@H](CCCCN)NC(=O)[C@H](CCCCN)NC(=O)[C@H](Cc1ccccc1)NC(=O)[C@@H]1CCCN1C(=O)[C@H](CCCCN)NC(=O)[C@H](CCCNC(=N)N)NC(=O)[C@H](Cc1ccccc1)NC(=O)[C@H](CCCNC(=N)N)NC(=O)[C@H](CCCCN)NC(=O)[C@H](Cc1ccccc1)NC(=O)[C@H](CCCNC(=N)N)NC(=O)CN)C(=O)N[C@@H](CO)C(=O)O` (H-GRFKRFRKPFKKLFKKIS-OH): the selectivity ratio in series [1] stood at 5.9. Further, in series [2], the EC50 stood at 3200 nM. The CC50 in series [3] came out at 18.9 µM.

`CC[C@H](C)[C@H](NC(=O)[C@H](CCCCN)NC(=O)[C@H](CCC(=O)O)NC(=O)[C@H](CCCCN)NC(=O)[C@@H](N)CO)C(=O)NCC(=O)N[C@@H](CCCCN)C(=O)N[C@@H](CCC(=O)O)C(=O)N[C@@H](Cc1ccccc1)C(=O)N[C@@H](CCCCN)C(=O)N[C@@H](CCCNC(=N)N)C(=O)N[C@H](C(=O)N[C@H](C(=O)N[C@@H](CCC(N)=O)C(=O)N[C@@H](CCCNC(=N)N)C(=O)N[C@H](C(=O)N[C@@H](CCCCN)C(=O)N[C@@H](CC(=O)O)C(=O)N[C@@H](Cc1ccccc1)C(=O)N[C@@H](CC(C)C)C(=O)N[C@@H](CCCNC(=N)N)C(=O)O)[C@@H](C)CC)C(C)C)[C@@H](C)CC` (H-SKEKIGKEFKRIVQRIKDFLR-OH): the selectivity ratio in series [1] is 2.08. In series [2], this compound yielded an EC50 of 10800 nM. For the same compound, the CC50 in series [3] is 22.5 µM.
